In PubChem BioAssay (NCI):
Values joined by “and” are separate entries in the source; they are usually repeats but may differ in a detail not shown here. Identical values can stand only once.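 Values below derive from 48-hour exposures of cells grown in 96-well plates, with endpoints linearly interpolated between the two concentrations bracketing the appropriate inhibition level. Here, GI50 denotes the concentration required for 50% inhibition of growth. TGI: concentration producing complete growth inhibition.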

Experiments:
Experiment in all cases: inhibition of tumour cell growth, NCI panel, 48 h
HOP-92 NSCLC = system: HOP-92 NSCLC
HL-60(TB) leukemia = system: HL-60(TB) leukemia
HCC-2998 colon = system: HCC-2998 colon
NCI-H23 lung = system: NCI-H23 lung
M14 melanoma = system: M14 melanoma
ACHN renal = system: ACHN renal
A498 renal = system: A498 renal
SW-620 colon = system: SW-620 colon
A549 NSCLC = system: A549 NSCLC
SF-539 CNS = system: SF-539 CNS

SMILES	GI50 (HOP-92 NSCLC) [nM]	TGI (HOP-92 NSCLC)	GI50 (HL-60(TB) leukemia)	TGI (HL-60(TB) leukemia) [µM]	GI50 (HCC-2998 colon) [µM]	TGI (HCC-2998 colon) [µM]	GI50 (NCI-H23 lung) [µM]	TGI (NCI-H23 lung)	GI50 (M14 melanoma) [nM]	TGI (M14 melanoma)	GI50 (ACHN renal) [nM]	TGI (ACHN renal) [µM]	GI50 (A498 renal) [µM]	TGI (A498 renal) [µM]	GI50 (SW-620 colon) [nM]	TGI (SW-620 colon)	GI50 (A549 NSCLC) [µM]	TGI (A549 NSCLC)	GI50 (SF-539 CNS) [nM]	TGI (SF-539 CNS) [µM]
Cc1cc(C#Cc2ccccc2)ccc1-n1c(/C=C/c2ccc(O)cc2)nc2ccccc2c1=O	2500	7.26 µM	1660 nM	4.69	2.35	7.35	3.62	> 100 µM	3560	15.1 µM	2460	8.52	1.56	7.71	4080	> 100 µM	3.14	> 100 µM	5650	> 100
O=C(/C=C/c1cccs1)Nc1ncc(Cc2ccccc2F)s1	1390	> 100 µM	213 nM	0.589	0.463	> 100	2.78	> 100 µM	120		462	> 100	0.175	0.899	159	> 100 µM	0.48	> 100 µM	219	0.649
CCN(CC)c1ccc(/C=N\NC(=O)c2cccc(Nc3ccnc(C(F)(F)F)c3)c2)c(O)c1	1350	> 100 µM	299 nM	1.05	0.278	8.76	0.575	> 100 µM	217	1.43 µM	218	> 40.4	0.541	17	366	> 100 µM	0.587	> 100 µM	279	1.45
COc1cc(C=NCC(=O)CSC(c2ccccc2)c2ccccc2)cc(OC)c1OC	8590	> 100 µM	8010 nM	26.8	23	57.3	26	> 100 µM	27000	> 100 µM	26400	> 100	5.98	38	32700	> 100 µM	7.7	> 100 µM	33100	> 100
C=C1C(=O)O[C@H]2[C@H](OC(C)=O)[C@@H](C)CCC/C(C)=C/CC[C@]3(CO3)[C@H](O)C[C@@H]12	2110	6.75 µM	2310 nM	5.63	15.2	28.4	4.87	18.3 µM			2300	4.17	16.9	33.4	3240	10.7 µM	16.9	35 µM	3200	9.27
S=C1OC2C3C4CC5C3C(O1)C1C5C4C21 (stereo not drawn)		> 100 µM		> 100		> 100				> 100 µM		> 100		> 100		> 100 µM		> 100 µM		> 100
Cc1ccc(S(=O)(=O)ON=C2CC(c3ccccc3)N(C)C(c3ccccc3)C2)cc1 (stereo not drawn)		43.5 µM and 46.7 µM	7250 nM and 19900 nM	> 100		32.3		62.9 µM and 47.8 µM		34.9 µM and 43.8 µM		50.7		70.8		38.8 µM and 31.2 µM		63.1 µM and 55.1 µM		36
CN1C=CN(Cc2ccc(-c3ccccn3)nc2)[CH-]1.CN1C=CN(Cc2ccc(-c3ccccn3)nc2)[CH-]1.[Au+3]	3200	10.2 µM	1220 nM	6.84	5.47	> 42.7	5.37	> 100 µM	2820	20.6 µM	14600	> 100	8.53	> 68.8	898	17.2 µM	8.69	> 100 µM	2340	10.3
COc1cc(Nc2ncc(-c3ccccc3)o2)cc(OC)c1OC	4270	> 25 µM	858 nM	> 9.44	5.08	> 25	2.84	> 25 µM	1260	> 25 µM	1180	> 25	0.607	> 7.47	986	> 25 µM	1.66	> 25 µM	1530	> 25
NC(=O)c1ccc(-c2c3ccccc3cc3c2ccc2ccccc23)cc1	6390	25.8 µM	2140 nM	> 100	5.22	82.4	10.7	84.4 µM	2040	20.1 µM	6620	62	3.71	24	2560	19.7 µM	4.7	24.7 µM	3590	15.5
Fc1cc(Nc2ccc3c(OCCCN4CCOCC4)cccc3n2)ccc1Cl	2400	6.26 µM	2680 nM	7.77	1.78	3.49	2.21	5.38 µM	2050	4.42 µM	3090	10.8	2.42	6.73			2.96	8.47 µM	1950	4.01
Cc1cc(I)cc(CN(C)CCCCN2CCCC2)c1O	15300	70.2 µM	16000 nM	35.2	18	36.3	34.7	> 100 µM	15100	29.1 µM	36800	> 100	13.4	30.2	17200	39.6 µM	30.7	> 100 µM	14700	28.7
CC(=O)Nc1[nH]c(=O)[nH]c(=O)c1N(C(C)=O)C(C)=O		> 100 µM		> 100		> 100				> 100 µM		> 100		> 100		> 100 µM		> 100 µM		> 100
COc1ccc2c(c1)[n+]([O-])c(-c1ccc(Cl)c(Cl)c1)c(N)[n+]2[O-]		> 100 µM		61				30.9 µM		72.2 µM		> 100		> 100		> 100 µM		> 100 µM		68.6
